{"source": "patent US8252737B2", "about": "“Antimicrobial peptides and methods of use” (priority 2004, dated 2012)", "key": {"[1]": {"tested_on": "human erythrocytes", "assay": "Hemolytic activity (MHC), Protocol B, 18 hours", "details": "for MHC (μg/ml) hRBC: maximal peptide concentration with no hemolysis after 18 hours", "description": "In order to evaluate the biological activities of the D-enantiomeric peptides, namely D-NAL and D-NKD, the hemolytic activity of the peptides against human erythrocytes was determined as the maximal peptide concentration that produces no hemolysis after 18 hours of incubation at 37° C.\nMeasurement of Hemolytic Activity—Protocol A: Peptide samples were added to 1% human erythrocytes in phosphate buffered saline (0.08M NaCl; 0.043M Na2PO4; 0.011M KH2PO4) and reactions were incubated at 37° C. for 12 hours in microtiter plates. Peptide samples were diluted 2 fold in order to determine the concentration that produced no hemolysis. […] Hemoglobin release was determined spectrophotometrically at 562 nm. The hemolytic titer was the highest 2-fold dilution of the peptide that still caused release of hemoglobin from erythrocytes. The control for no release of hemoglobin was a sample of 1% erythrocytes without any peptide added. […] Peptide samples were diluted 2 fold in order to determine the concentration that produced no hemolysis. […] Hemoglobin release was determined spectrophotometrically at 570 nm. The hemolytic titer was the highest 2-fold dilution of the peptide that still caused release of hemoglobin from erythrocytes. The control for no release of hemoglobin was a sample of 1% erythrocytes without any peptide added."}, "[2]": {"tested_on": "Pseudomonas aeruginosa strains", "description": "Pseudomonas aeruginosa strains used in this study are a diverse group of clinical isolates from different places in the world. […] The geometric mean MIC values from six Pseudomonas aeruginosa strains were calculated to provide an overall evaluation of antimicrobial activity of these peptides against Pseudomonas aeruginosa. Fold improvement was calculated by comparing the geometric mean MIC value of each peptide to that of the parent peptide V681.\n(§1) Measurement of Antimicrobial Activity—Minimal inhibitory concentrations (MICs) were determined using a standard microtiter dilution method in LB (Luria-Bertani) no-salt medium (10 g of tryptone and 5 g of yeast extract per liter). Briefly, cells were grown overnight at 37° C. in LB and diluted in the same medium. […] Plates were incubated at 37° C. for 24 hours and MICs determined as the lowest peptide concentration that inhibited growth. Alternatively, minimal inhibitory concentrations were determined using a standard microtiter dilution method in a Mueller-Hinton (MH) medium. Briefly, cells were grown overnight at 37° C. in MH broth and diluted in the same medium. […] Plates were incubated at 37° C. for 24 hours and MICs determined as the lowest peptide concentration that inhibited growth. However, for MIC determination of Pseudomonas aeruginosa clinical isolates, brain heart infusion (BH1) medium was used instead of MH broth. In addition, the bacteria were diluted to a final inoculum of 1×10^6 colony-forming units/ml.\nFor the Leu-substituted peptides, the hemolytic activity against human erythrocytes was determined as the maximal peptide concentration that produces no hemolysis after 18 hours of incubation at 37° C. Antimicrobial activity of the peptides was determined on a diverse group of Pseudomonas aeruginosa clinical isolates. […] The geometric mean MIC values from six Pseudomonas strains in Table 14 were calculated to provide an overall evaluation of antimicrobial activity of the peptides with different hydrophobicities."}, "[3]": {"tested_on": "gram-negative bacteria", "assay": "MIC, microtiter dilution, Gram-negative bacteria (geometric mean of 6 strains)", "type": "cell-based", "details": "geometric mean of MIC values from all 6 Gram-negative strains of Table 11", "description": "(§2) The geometric mean MIC values from 6 microbial strains in this table were calculated to provide an overall evaluation of antimicrobial activity against gram-negative bacteria.\nIn Table 11, geometric mean MIC was calculated to provide an overall view of antimicrobial activity of the peptides against Gram-negative bacteria and was also used to calculate the therapeutic index.\nas §1"}, "[4]": {"details": "Salmonella typhimurium wild-type lab strain", "description": "as §2, §1"}, "[5]": {"tested_on": "E. coli (UB 1005 wt and DC2 abs)", "description": "as §2, §1"}, "[6]": {"tested_on": "P. aeruginosa H187 wt", "description": "as §2, §1"}, "[7]": {"tested_on": "S. typhimurium C610 abs", "details": "Salmonella typhimurium antibiotic sensitive strain", "description": "as §2, §1"}, "[8]": {"tested_on": "C. albicans", "details": "fungus", "description": "as §1"}, "[9]": {"tested_on": "E. faecalis", "details": "wild type strain", "description": "as §1"}, "[10]": {"tested_on": "gram-positive bacteria", "details": "geometric mean of MIC values from all 6 gram-positive strains of Table 12", "description": "as §1"}, "[11]": {"tested_on": "Staphylococcus aureus"}, "[12]": {"tested_on": "Staphylococcus epidermidis"}, "[13]": {"tested_on": "Bacillus subtilis"}, "[14]": {"tested_on": "Corynebacterium xerosis"}}, "note": "Marks after values point to notes of the source that are not given here.", "data": [{"smiles": "CC[C@@H](C)[C@@H](NC(=O)[C@@H](C)NC(=O)[C@@H](CCCCN)NC(=O)[C@@H](CC(C)C)NC(=O)[C@@H](C)NC(=O)[C@H](NC(=O)[C@@H](Cc1c[nH]cn1)NC(=O)[C@@H](CC(C)C)NC(=O)[C@H](NC(=O)[C@H](NC(=O)[C@@H](CCCCN)NC(=O)[C@@H](CCCCN)NC(=O)[C@@H](C)NC(=O)[C@@H](CO)NC(=O)[C@@H](CCCCN)NC(=O)[C@@H](Cc1ccccc1)NC(=O)[C@H](NC(=O)[C@@H](CCCCN)NC(=O)[C@@H](CC(C)C)NC(=O)[C@@H](Cc1ccccc1)NC(=O)[C@@H](CO)NC(=O)[C@@H](CCCCN)NC(=O)[C@@H](Cc1c[nH]c2ccccc12)NC(=O)[C@@H](CCCCN)NC(C)=O)[C@H](C)O)[C@H](C)O)C(C)C)[C@H](C)O)C(=O)N[C@H](CO)C(=O)N[C@H](CO)C(N)=O", "note": "[D-NKD]", "values": [{"measurement": "Hemolytic activity Fold", "setting": "[1]; fold decrease in hemolytic activity compared to V681, 18 hours", "result": 32}, {"measurement": "Hemolytic activity MHC", "setting": "[1]; maximal peptide concentration producing no hemolysis after 18 hours, 37° C.", "result": "250.0^h μg/ml"}, {"measurement": "MHC (μg/ml) hRBC", "setting": "[1]; Table 11", "result": "250.0^h μg/ml"}, {"measurement": "MHC (μg/ml) hRBC", "setting": "[1]; Table 12", "result": "250.0^h μg/ml"}, {"measurement": "MIC GM", "setting": "[2]; geometric mean of six Pseudomonas aeruginosa clinical isolates", "result": 31.2, "unit": "µg/mL"}, {"measurement": "MIC CP 204", "setting": "[2]; strain CP 204", "result": 15.6, "unit": "µg/mL"}, {"measurement": "MIC M 2", "setting": "[2]; strain M 2", "result": 31.3, "unit": "µg/mL"}, {"measurement": "MIC PA 14", "setting": "[2]; strain PA 14", "result": 15.6, "unit": "µg/mL"}, {"measurement": "MIC PAK", "setting": "[2]; strain PAK", "result": 125.0, "unit": "µg/mL"}, {"measurement": "MIC PAO 1", "setting": "[2]; strain PAO 1", "result": 15.6, "unit": "µg/mL"}, {"measurement": "MIC WR 5", "setting": "[2]; strain WR 5", "result": 62.5, "unit": "µg/mL"}, {"measurement": "MIC (μg/ml) GM", "setting": "[3]", "result": 3.9, "unit": "µg/mL"}, {"measurement": "MIC (μg/ml) St C587 wt", "setting": "[4]", "result": 6.3, "unit": "µg/mL"}, {"measurement": "MIC (μg/ml) E. coli C500 abs", "setting": "[5]; antibiotic sensitive strain", "result": 3.1, "unit": "µg/mL"}, {"measurement": "MIC (μg/ml) E. coli C498 wt", "setting": "[5]; wild-type lab strain", "result": 3.1, "unit": "µg/mL"}, {"measurement": "MIC (μg/ml) Pa H188 abs", "setting": "[6]; Pseudomonas aeruginosa antibiotic sensitive strain", "result": 3.1, "unit": "µg/mL"}, {"measurement": "MIC (μg/ml) Pa H187 wt", "setting": "[6]; Pseudomonas aeruginosa wild-type lab strain", "result": 6.3, "unit": "µg/mL"}, {"measurement": "MIC (μg/ml) St C610 abs", "setting": "[7]", "result": 3.1, "unit": "µg/mL"}, {"measurement": "MIC (μg/ml) C. albicans", "setting": "[8]", "result": 25.0, "unit": "µg/mL"}, {"measurement": "MIC (μg/ml) E. faecalis C625 wt", "setting": "[9]", "result": 12.5, "unit": "µg/mL"}, {"measurement": "MIC (μg/ml) GM", "setting": "[10]", "result": 4.0, "unit": "µg/mL"}, {"measurement": "MIC (μg/ml) S. aureus 622 wt", "setting": "[11]", "result": 6.3, "unit": "µg/mL"}, {"measurement": "MIC (μg/ml) S. aureus 623 methR", "setting": "[11]", "result": 6.3, "unit": "µg/mL"}, {"measurement": "MIC (μg/ml) S. epidermidis C621 wt", "setting": "[12]", "result": 3.1, "unit": "µg/mL"}, {"measurement": "MIC (μg/ml) B. subtilis C971 wt", "setting": "[13]", "result": 1.6, "unit": "µg/mL"}, {"measurement": "MIC (μg/ml) C. xerosis C875 wt", "setting": "[14]", "result": 1.6, "unit": "µg/mL"}]}]}
